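Test compounds were applied to cells in 96-well plates for 48 hours at 5 doses. TGI marks complete inhibition of growth.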
Key:
Assay in all cases: inhibition of tumour cell growth, NCI panel, 48 h
[1] = system: NCI-H522 lung
[2] = system: CAKI-1 renal
[3] = system: DLD-1 colon
[4] = system: 786-0 renal
[5] = system: HOP-18 NSCLC
[6] = system: SK-MEL-2 melanoma
[7] = system: CCRF-CEM leukemia
[8] = system: HOP-62 NSCLC
[9] = system: NCI-H23 lung
[10] = system: KM20L2 colon
[11] = system: OVCAR-4 ovarian
[12] = system: OVCAR-8 ovarian
[13] = system: U251 CNS
[14] = system: HCC-2998 colon
[15] = system: DMS 273 small cell lung
[16] = system: SN12C renal
[17] = system: HL-60(TB) leukemia
[18] = system: UACC-257 melanoma
[19] = system: HOP-92 NSCLC
[20] = system: MALME-3M melanoma
[21] = system: SF-295 CNS
[22] = system: SK-OV-3 ovarian
[23] = system: EKVX NSCLC
[24] = system: SF-268 CNS
[25] = system: SK-MEL-5 melanoma
[26] = system: IGROV1 ovarian
[27] = system: UACC-62 melanoma
[28] = system: NCI-H460 lung
[29] = system: HT29 colon
[30] = system: TK-10 renal
[31] = system: A498 renal
[32] = system: LXFL 529 NSCLC
[33] = system: RXF 393 renal
[34] = system: K-562 leukemia
[35] = system: COLO 205 colon
[36] = system: SNB-75 CNS
[37] = system: SK-MEL-28 melanoma
[38] = system: HCT-116 colon
[39] = system: UO-31 renal
[40] = system: XF 498 CNS
[41] = system: M14 melanoma
[42] = system: OVCAR-5 ovarian
[43] = system: DMS 114 small cell lung
[44] = system: A549 NSCLC
[45] = system: NCI-H226 lung
[46] = system: ACHN renal
[47] = system: M19-MEL melanoma
[48] = system: HCT-15 colon
[49] = system: SNB-19 CNS
[50] = system: SW-620 colon
[51] = system: LOX IMVI melanoma
[52] = system: KM12 colon
[53] = system: SF-539 CNS
[54] = system: SNB-78 CNS
[55] = system: OVCAR-3 ovarian
[56] = system: MOLT-4 leukemia
[57] = system: RPMI-8226 leukemia

CCOC(=O)CC1=NC(=Nc2cc(Cl)ccc2Cl)SC1
TGI [1]: > 100 µM | TGI [2]: > 100 µM | TGI [3]: > 100 µM | TGI [4]: > 100 µM | TGI [5]: > 100 µM | TGI [6]: > 100 µM | TGI [7]: > 100 µM | TGI [8]: > 100 µM | TGI [9]: > 100 µM | TGI [10]: > 100 µM | TGI [11]: > 100 µM | TGI [12]: > 100 µM | TGI [13]: > 100 µM | TGI [14]: > 100 µM | TGI [15]: > 100 µM | TGI [16]: > 100 µM | TGI [17]: > 100 µM | TGI [18]: > 100 µM | TGI [19]: > 100 µM | TGI [20]: > 100 µM | TGI [21]: > 100 µM | TGI [22]: > 100 µM | TGI [23]: > 100 µM | TGI [24]: > 100 µM | TGI [25]: > 100 µM | TGI [26]: > 100 µM | TGI [27]: > 100 µM | TGI [28]: > 100 µM | TGI [29]: > 100 µM | TGI [30]: > 100 µM | TGI [31]: > 100 µM | TGI [32]: > 100 µM | TGI [33]: > 100 µM | TGI [34]: > 100 µM | TGI [35]: > 100 µM | TGI [36]: > 100 µM | TGI [37]: > 100 µM | TGI [38]: > 100 µM | TGI [39]: > 100 µM | TGI [40]: > 100 µM | TGI [41]: > 100 µM | TGI [42]: > 100 µM | TGI [43]: > 100 µM | TGI [44]: > 100 µM | TGI [45]: > 100 µM | TGI [46]: > 100 µM | TGI [47]: > 100 µM | TGI [48]: > 100 µM | TGI [49]: > 100 µM | TGI [50]: > 100 µM | TGI [51]: > 100 µM | TGI [52]: > 100 µM | TGI [53]: > 100 µM | TGI [54]: > 100 µM | TGI [55]: > 100 µM

CCN(CC)CCN=Cc1c(O)c(O)c(C(C)C)c2cc(C)c(-c3c(C)cc4c(C(C)C)c(O)c(O)c(C=NCCN(CC)CC)c4c3O)c(O)c12
TGI [1]: 3.4 µM | TGI [6]: 5.17 µM | TGI [7]: 1.45 µM | TGI [8]: 8.13 µM | TGI [9]: 8.04 µM | TGI [11]: 10.1 µM | TGI [14]: 9.62 µM | TGI [56]: 4.36 µM | TGI [18]: 18.8 µM | TGI [19]: 7.96 µM | TGI [20]: 17 µM | TGI [21]: 4.45 µM | TGI [57]: 6.16 µM | TGI [22]: 12.4 µM | TGI [24]: 34.6 µM | TGI [26]: 12.5 µM | TGI [27]: 6.03 µM | TGI [28]: 13.7 µM | TGI [29]: 3.83 µM | TGI [32]: 3.11 µM | TGI [33]: 5.31 µM | TGI [34]: 3 µM | TGI [35]: 14.5 µM | TGI [36]: 22.6 µM | TGI [37]: 12.5 µM | TGI [38]: 6.02 µM | TGI [39]: 8.8 µM | TGI [41]: 4.06 µM | TGI [43]: 3.76 µM | TGI [46]: 8.37 µM | TGI [47]: 14.1 µM | TGI [49]: 8.86 µM | TGI [52]: 3.92 µM | TGI [53]: 5.65 µM | TGI [54]: 5.6 µM | TGI [55]: 4.61 µM
